Values of other authors, collected in patent US12174205B2, “Phosphatidylethanolamine-specific probes” (Northwestern University, priority 2014, dated 2024).

Settings: at micromolar concentration: membrane distortion, PE translocation

cinnamycin
cytotoxicity: exhibit cytotoxicity
